Source: article PMC11882969 (Nature Communications, 2025)
Several values for one entry are separate records, joined by “and”; a condition that tells them apart may be missing. Equal values may be shown once. Read-outs that look alike come from different tables or passages of the source.

Columns and labels:
[1] = molecular target: hCB2 (Homo sapiens, UniProt P34972); experiment: Tango β-arrestin-2 recruitment, HTLA cells, CB2R; assay type: cell-based; design: expressed in transfected cells; host or cells: HEK293 cells stably expressing human CB2R (Laboratory of Ken Mackie); details: hCB2; for EC50: read-out: Tango ß-arrestin recruitment EC50
Sequence of hCB2 (P34972 whole entry): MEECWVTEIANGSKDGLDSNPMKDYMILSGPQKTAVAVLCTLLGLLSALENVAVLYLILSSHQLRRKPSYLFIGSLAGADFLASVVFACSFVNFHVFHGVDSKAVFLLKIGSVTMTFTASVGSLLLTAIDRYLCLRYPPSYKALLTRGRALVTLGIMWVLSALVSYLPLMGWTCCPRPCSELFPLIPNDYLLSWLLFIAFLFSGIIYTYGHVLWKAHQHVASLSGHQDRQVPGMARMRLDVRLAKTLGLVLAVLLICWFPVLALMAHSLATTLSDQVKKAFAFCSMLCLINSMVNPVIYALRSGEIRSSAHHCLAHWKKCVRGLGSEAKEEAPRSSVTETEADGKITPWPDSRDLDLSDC
Procedure: The Tango β-arrestin-2 recruitment assays were performed as described[83]. In brief, HTLA cells (a gift from the laboratory of R. Axel) were transiently transfected with human CB1R or CB2R Tango DNA construct overnight in DMEM supplemented with 10 % FBS, 100 µg ml−1 streptomycin and 100 U ml−1 penicillin. The transfected cells were then plated into poly-L-lysine-coated 384-well white clear-bottom cell culture plates in DMEM containing 1% dialysed FBS at a density of 10,000–15,000 cells per well. After incubation for 6 h, the plates were added with drug solutions prepared in DMEM containing 1% dialysed FBS for overnight incubation. On the day of assay, medium and drug solutions were removed and 20 µl per well of BrightGlo reagent (Promega) was added. The plates were further incubated for 20 min at room temperature and counted using the Wallac TriLux Microbeta counter (PerkinElmer). The results were analysed using GraphPad Prism 9. Each experiment was performed in triplicate and functional IC50 values were determined from the mean of three independent experiments.

[2] = Dynamic light scattering, colloidal aggregation; assay type: physicochemical; details: Log[compound, replicates, sheet FigS2b
Procedure: Samples were prepared as 8-point half-log dilutions in filtered 50 mM KPi buffer, pH 7.0 with final DMSO concentration at 1% (v/v). Colloidal particle formation was measured using DynaPro Plate Reader II (Wyatt Technologies). All compounds were screened in triplicate.

[3] = molecular target: T1, CB1R with G protein (Gi1-3, Go) (Homo sapiens, UniProt P21554); experiment: GTP turnover assay (GTPase-Glo); assay type: biochemical; details: replicates, sheet FigS3c
T1 construct: a N-terminal FLAG tag and C-terminal histidine tag was added to human full-length CB1; FLAG (N); histidine tag (C); made in house; host or cells: CB1R: Spodoptera frugiperda Sf9; G proteins: Trichoplusia ni Hi5
T1 sequence (P21554 whole entry): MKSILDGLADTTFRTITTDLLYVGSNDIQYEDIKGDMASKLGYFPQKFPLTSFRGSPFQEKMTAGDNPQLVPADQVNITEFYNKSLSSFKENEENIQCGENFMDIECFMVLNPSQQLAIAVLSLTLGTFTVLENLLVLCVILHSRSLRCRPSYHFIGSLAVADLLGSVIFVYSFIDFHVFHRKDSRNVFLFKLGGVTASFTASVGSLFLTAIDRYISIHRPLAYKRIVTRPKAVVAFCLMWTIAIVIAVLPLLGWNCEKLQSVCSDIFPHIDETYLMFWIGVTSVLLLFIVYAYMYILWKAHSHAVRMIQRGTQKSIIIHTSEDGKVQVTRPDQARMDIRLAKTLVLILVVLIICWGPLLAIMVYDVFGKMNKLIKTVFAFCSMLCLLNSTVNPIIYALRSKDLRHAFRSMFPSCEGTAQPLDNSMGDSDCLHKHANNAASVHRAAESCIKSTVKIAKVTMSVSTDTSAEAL
Procedure: Analysis of GTP turnover was performed by using a modified protocol of the GTPase-Glo^TM assay (Promega) described previously. Ligand-bound (10 μM ligand incubated for one hour at room temperature) or apo CB1R (1 μM) was mixed with G protein (1 μM) in 20 mM HEPES, pH 7.5, 50 mM NaCl, 0.01% L-MNG/0.001% CHS, 100 μM TCEP, 10 μM GDP and 10 μM GTP and incubated at room temperature. GTPase-Glo-reagent was added to the sample after incubation for 60 min (Gi1-3) and 20 min for (Go). Luminescence was measured after the addition of detection reagent and incubation for 10 min at room temperature using a SpectraMax Paradigm plate reader.

[4] = tested on: mice; experiment: Hot plate, 52 °C; assay type: in vivo, mouse; details: for Jump / Paw lick / Paw shake / Paw withdrawal: individual animals, FigS11b; for lowest dose with significantly increased hot plate latency: i.p., 30 min after injection
[5] = tested on: mice; experiment: Rotarod test; assay type: in vivo, mouse; details: for dose showing locomotor deficits or sedation, rotarod: i.p.
[6] = tested on: mice; experiment: Catalepsy test, vertical wire mesh; assay type: in vivo, mouse; details: for Individual animal values (FigS11d): test not printed on the sheet; for catalepsy, latency to move all four paws: ‘1350 at 0.2 or 0.5 mg/kg, haloperidol 1.0 mg/kg
Procedure: Thirty min after an i.p. injection of the compounds, mice were placed on a vertical wire mesh and the latency to move all four paws was recorded.

[7] = tested on: mice; details: for therapeutic window, analgesia vs catalepsy: Figure 6f
Procedure: For all behavioral tests, the experimenter was always blind to treatment. Animals were first habituated for 30-60 min in Plexiglas cylinders and then tested 30 min after i.p. or i.t. injection of the compounds. The thermal (Hargreaves, hotplate and tail flick) and ambulatory (rotarod) tests were conducted as described[96]. Briefly, hindpaw thermal sensitivity was measured with a radiant heat source (Hargreaves) or on a hotplate at 52 °C. For the tail flick assay, sensitivity was measured by immersing the tail into a 50 °C water bath. For the ambulatory (rotarod) test, before testing with any compound, mice underwent three trainings on three consecutive days until they reach 300 sec. Each training has three sessions of five min each. Therapeutic window was calculated as the ratio of the minimum dose of side effect phenotype to the minimum dose of analgesic phenotype.

[8] = first block, G protein not printed (Gi2, Gi3, Goa follow)

For `COC(=O)[C@@H]1[C@@H]2CCC[C@@H]2CN1C(=O)c1cc(C)n(-c2cccc(Cl)c2)n1` (racemic) [‘10010], the “Tango ß-arrestin recruitment Emax” value [1] was 18% [17 – 19], the “Tango ß-arrestin recruitment pEC50” value [1] was 6.3 [6.2 – 6.3] and the EC50 [1] was 0.556 µM.
For `COC(=O)[C@@H]1[C@@H]2CCC[C@@H]2CN1C(=O)c1cc(C)n(-c2cccc(C(F)(F)F)c2)n1` [‘6439], the “Tango ß-arrestin recruitment Emax” value [1] was 14% [13 – 15], the “Tango ß-arrestin recruitment pEC50” value [1] was 6.5 [6.4 – 6.6] and the EC50 [1] was 0.338 µM.
With `Cc1c(C(=O)OCC2CSc3ccccc3O2)cnn1Cc1ccccc1` (centres unmarked) [‘7800] the DLS scattering intensity ([2]; uM] 0) was 1640000 and 1120000 and 1230000, the DLS scattering intensity ([2]; uM] 1) was 22000000 and 23800000 and 19200000 and the DLS scattering intensity ([2]; uM] 1.49996) was 97300000 and 53900000 and 120000000. The DLS scattering intensity ([2]; uM] 2) was 210000000 and 155600000 and 163000000, the DLS scattering intensity ([2]; uM] -0.500011) was 631259 and 1270000 and 2510000 and the DLS scattering intensity ([2]; uM] -1) was 884292 and 807566 and 1180000.
With `COC(=O)[C@@](C)(NC(=O)c1cc(C)n(-c2cccc(C(F)(F)F)c2)n1)c1cccs1` [‘1350] the “GTP turnover, normalised (FUB about 100)” value ([3]; Gi2) was 96.8998 and 91.3876 and 87.4526 and 89.8295 and 89.8906 and 82.6279, the “GTP turnover, normalised (FUB about 100)” value ([3]; Gi3) was 81.2301 and 82.2228 and 81.0231 and 89.3188 and 82.6055 and 85.3572 and the “GTP turnover, normalised (FUB about 100)” value ([3]; Goa) was 86.5272 and 96.4818 and 93.6031 and 96.9291 and 99.611 and 94.5957. For the same compound, the “GTP turnover, normalised (FUB about 100)” value [3, 8] was 83.1663 and 86.2553 and 85.2024 and 81.617 and 83.7026 and 83.2158, the Jump ([4]; 0.05 mg/kg) was 0 (4×) and 2 and the Paw lick ([4]; 0.05 mg/kg) was 0 (3×) and 2 and 12. For the same compound, the Paw shake ([4]; 0.05 mg/kg) was 20 and 22 and 48 and 24 and 12, the Paw withdrawal ([4]; 0.05 mg/kg) was 28 and 42 and 47 and 50 and 14 and the Jump ([4]; 0.1 mg/kg) was 0. The Paw lick ([4]; 0.1 mg/kg) was 2 and 0 (3×) and 8, the Paw shake ([4]; 0.1 mg/kg) was 16 and 18 and 6 and 22 and 4 and the Paw withdrawal ([4]; 0.1 mg/kg) was 20 and 30 and 22 and 34 and 14. The Jump ([4]; 0.2 mg/kg) was 8 and 0 and 34 and 14 (2×), the Paw lick ([4]; 0.2 mg/kg) was 0 and the Paw shake ([4]; 0.2 mg/kg) was 2 (2×) and 4 and 0 (2×). For the same compound, the Paw withdrawal ([4]; 0.2 mg/kg) was 16 and 22 and 18 (2×) and 12, the “effect of CB2R knockout on analgesia, hot plate” value ([4]; CB2R KO mice) was “did not decrease the analgesic effects” and the “hot plate response normalised to baseline (Figure4b), individual animals” value (“hot plate response normalised” below) ([4]; Dose 0.05 mg/kg) was 62.7 and 108.4 and 141.6 and 81.1 and 84.7 and 79 and 84.5 and 85.4 and 86.2 and 81.8. The “hot plate response normalised” value ([4]; Dose 0.1 mg/kg) was 100.2 and 152.6 and 103.1 and 113.3 and 127.2 and 80.8 and 109.9 and 151.2 and 138.2 and 159.1, the “hot plate response normalised” value ([4]; Dose 0.2 mg/kg) was 191.789 and 117.988 and 110.937 and 200.407 and 123.942 and the “hot plate response normalised” value ([4]; Dose 0.5 mg/kg) was 244.124 and 212.316 and 122.062 and 249.608 and 217.8. For the same compound, the “lowest dose with significantly increased hot plate latency” value [4] was 0.1 mg/kg, the “rotarod performance (Figure6b), individual animals” value (shortened to “rotarod performance (Figure6b)”) ([5]; Dose 0.1 mg/kg) was 275 and 300 and the “rotarod performance (Figure6b)” value ([5]; Dose 0.2 mg/kg) was 300 and 226 and 231 and 240 and 274 and 298 and 237 and 211. The “rotarod performance (Figure6b)” value ([5]; Dose 0.5 mg/kg) was 123 and 300 and 128 and 153, the “dose showing locomotor deficits or sedation, rotarod” value [5] was 0.5 mg/kg and the “catalepsy (Figure6c), individual animals” value ([6]; 0.2 mg/kg dose) was 7 and 4 and 15 and 2 (2×). For the same compound, the “catalepsy (Figure6c), individual animals” value ([6]; 0.5 mg/kg dose) was 2 and 10 and 30 and 20 and 5 and 0.5 and 2.4 and 2.2 and 2.3 and 0.7 and 1 and 2.7 and 2.9 and 2.1 and 1.4, the “catalepsy (Figure6c), individual animals” value ([6]; 1 mg/kg dose) was 16 and 5 and 4 and 30 and 6 and the “catalepsy at a sedating dose” value ([6]; 1 mg/kg i.p.) was “non-significant, but nevertheless, increased latency to move the paws”. For the same compound, the “catalepsy in CB1R knockout” value ([6]; 1 mg/kg, CB1R KO mice) was “eliminated this minimal cataleptic effect”, the “catalepsy in CB2R knockout” value ([6]; 1 mg/kg, CB2R KO vs wildtype) was “statistically significant increase in catalepsy” and the “Individual animal values (FigS11d)” value ([6]; CB1R KO mice, 1 mg/kg) was 3.1 and 2.8 and 2.7 and 1.8. The “Individual animal values (FigS11d)” value ([6]; CB2R KO mice, 0.2 mg/kg) was 2.2 and 2.7 and 4 and 4.2 and 2.8, the “Individual animal values (FigS11d)” value ([6]; CB2R KO mice, 0.5 mg/kg) was 3.3 and 4.3 and 29.3 and 28 and 5.6 and the “Individual animal values (FigS11d)” value ([6]; CB2R KO mice, 1 mg/kg) was 40 and 2. For the same compound, the “Individual animal values (FigS11d)” value ([6]; WT mice, 0.2 mg/kg) was 7 and 4 and 15 and 2, the “Individual animal values (FigS11d)” value ([6]; WT mice, 0.5 mg/kg) was 2.4 and 2.2 and 2.3 and 0.7 and 1 and 2.7 and 2.1 and 1.4 and 2 and 10 and 30 and 20 and 5 and the “Individual animal values (FigS11d)” value ([6]; WT mice, 1 mg/kg) was 16 and 5 and 4 and 30 and 6. The “dose at which catalepsy starts” value ([6]; i.p.) was 1 mg/kg, the “catalepsy, latency to move all four paws” value ([6]; i.p.) was “did not induce cataleptic behavior” and the “therapeutic window, Acetone” value ([7]; Figure 6e, vs rotarod) was 10. For the same compound, the “therapeutic window, Hot Plate” value ([7]; Figure 6e, vs rotarod) was 5, the “therapeutic window, Tail Flick” value ([7]; Figure 6e, vs rotarod) was 5 and the “therapeutic window, analgesia vs catalepsy” value [7] was “at least a ten-fold window”. The “therapeutic window, Acetone” value ([7]; Figure 6d, vs open field) was 4, the “therapeutic window, Hot Plate” value ([7]; Figure 6d, vs open field) was 2 and the “therapeutic window, Tail Flick” value ([7]; Figure 6d, vs open field) was 2. For the same compound, the “therapeutic window, analgesia vs hypolocomotion, sedation, catalepsy” value ([7]; mice) was 2-10 fold and 2-20 fold.
In the case of `COC(=O)[C@](C)(NC(=O)c1cc(C)n(-c2cccc(C(F)(F)F)c2)n1)c1cccs1` [‘8690], the “GTP turnover, normalised (FUB about 100)” value ([3]; Gi2) is reported as 16.9643 and 39.0749 and 37.2739 and 44.0104 and 47.8141 and 43.1917, the “GTP turnover, normalised (FUB about 100)” value ([3]; Gi3) is reported as 40.931 and 39.8765 and 45.2237 and 46.1547 and 48.6065 and 44.9238 and the “GTP turnover, normalised (FUB about 100)” value ([3]; Goa) is reported as 61.5575 and 70.4664 and 69.7244 and 64.4739 and 72.6259 and 67.4132. The “GTP turnover, normalised (FUB about 100)” value [3, 8] was 38.198 and 43.143 and 41.7234 and 41.9514 and 39.8163 and 42.5776.
With `Cc1cc(C(=O)NC(C)(c2ccco2)c2ccco2)nn1-c1cccc(C(F)(F)F)c1` [‘4936] the Jump ([4]; 0.2 mg/kg) was 2 (2×) and 4 and 0 (2×), the Paw lick ([4]; 0.2 mg/kg) was 27 and 43 and 44 and 13 and 16 and the Paw shake ([4]; 0.2 mg/kg) was 12 (2×) and 25 and 5 and 6. The Paw withdrawal ([4]; 0.2 mg/kg) was 24 (2×) and 13 and 23 and 8, the “hot plate response normalised” value ([4]; Dose 0.05 mg/kg) was 102.582 and 109.155 and 97.1831 and 135.446 and 112.911 and the “hot plate response normalised” value ([4]; Dose 0.1 mg/kg) was 324.648 and 182.16 and 233.803 and 158.685 and 147.887 and 257.981 and 154.695 and 178.169 and 197.418 and 155.869. The “hot plate response normalised” value ([4]; Dose 0.2 mg/kg) was 174.413 and 176.291 and 188.028 and 167.84 and 94.8357 and 253.991 and 380.986 and 174.648 and 215.493 and 126.291, the “hot plate response normalised” value ([4]; Dose 0.5 mg/kg) was 308.685 and 139.202 and 403.052 and 315.493 and 134.742 and 404.695 and 140.141 and 141.549 and 236.62 and 416.667 and the “lowest dose with significantly increased hot plate latency” value [4] was 0.5 mg/kg. For the same compound, the “rotarod performance (Figure6b)” value ([5]; Dose 0.2 mg/kg) was 300 and 283, the “rotarod performance (Figure6b)” value ([5]; Dose 0.5 mg/kg) was 300 and 234 and 278 and 166 and 268 and 275 and 273 and the “rotarod performance (Figure6b)” value ([5]; Dose 1.0 mg/kg) was 201 and 300 and 258 and 267 and 295 and 215 and 252 and 282 and 235. For the same compound, the “rotarod performance (Figure6b)” value ([5]; Dose 2.0 mg/kg) was 298 and 90 and 300 and 163 and 260, the “dose showing locomotor deficits or sedation, rotarod” value [5] was 2 mg/kg and the “catalepsy (Figure6c), individual animals” value ([6]; 0.2 mg/kg dose) was 0.9 and 0.7 and 0.8 (2×) and 0.4. For the same compound, the “catalepsy (Figure6c), individual animals” value ([6]; 0.5 mg/kg dose) was 0.6 (3×) and 0.8 and 0.9, the “catalepsy (Figure6c), individual animals” value ([6]; 1 mg/kg dose) was 0.7 and 0.6 and 1.2 and 1.1 (2×) and the “catalepsy, latency to move all four paws” value ([6]; i.p.) was “does not induce catalepsy at any tested dose up to 1 mg/kg”. For the same compound, the “therapeutic window, Acetone” value ([7]; Figure 6e, vs rotarod) was 10, the “therapeutic window, Hot Plate” value ([7]; Figure 6e, vs rotarod) was 4 and the “therapeutic window, analgesia vs catalepsy” value [7] was “greater than 5”.
